Read-outs that look alike come from different tables or passages of the source.
What was measured:
HUVECs = test: Tube formation (tubulogenesis) assay in HUVECs, 18 h; format: cell-based, human; settings: Homo sapiens, HUVEC, 18 h, HUVEC; for activity at 0.1 µM: 0.10 µM
Outline: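 HUVECs (passage 1–5) seeded on reduced-growth-factor basement membrane and exposed to compounds overnight at 37°C, 5% CO2, in 2× maintenance medium with 12.5 ng/mL VEGF; 0.5% DMSO vehicle. Calcein AM-stained tube networks imaged and analysed; vehicle-normalized readouts fit to four-parameter logistic, POD set at one SD of vehicle means.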

[1] = test system: iCell endothelial cells (human iPSC-derived ECs); test: High-content imaging cytotoxicity in iCell endothelial cells, 24 h; format: cell-based; settings: Homo sapiens, Endothelial cell, 24 hr; for viability at 0.1 µM / activity at 0.1 µM: 0.10 µM
Outline: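 Human iPSC-derived endothelial cells (passages 1–5) were grown to a fibronectin-coated monolayer, then exposed 24 h at 37 °C with 0.5% DMSO vehicle. Staining was Hoechst 33342, MitoTracker Orange and calcein AM, read by high-content imaging. Point of departure came from 4-parameter logistic fits, with a 1-SD vehicle cutoff and 100 µM as the top concentration.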

[2] = HUVECs, 0.00 µM = 100.00, read-out: huvec.mtl.18hr
[3] = HUVECs, 0.00 µM = 100.00, read-out: huvec.tlps.18hr
[4] = HUVECs, 0.00 µM = 100.00, read-out: huvec.tta.18hr
[5] = HUVECs, 0.00 µM = 100.00, read-out: huvec.ttl.18hr
[6] = iPSC-EC, 0.00 µM control = 100.00, read-out: endo.cyto.24hr
[7] = iPSC-EC, 0.00 µM control = 100.00, read-out: endo.mito.24hr
[8] = iPSC-EC, 0.00 µM control = 100.00, read-out: endo.mitoint.24hr
[9] = iPSC-EC, 0.00 µM control = 100.00, read-out: endo.nma.24hr
[10] = iPSC-EC, 0.00 µM control = 100.00, read-out: endo.tc.24hrs

Structure (SMILES): O=C1C=CC(=O)C(c2ccc(Cl)cc2)=C1 [4-Cl-BQ, 2-(4-Chlorophenyl)benzo-2,5-quinone]
- minimal effective concentration (HUVECs; tube formation mtl, read-out: POD huvec.mtl.18hr): 1.18 µM
- minimal effective concentration (HUVECs; tube formation tlps, read-out: POD huvec.tlps.18hr): 5.25 µM
- minimal effective concentration (HUVECs; tube formation tta, read-out: POD huvec.tta.18hr): 0.65 µM
- minimal effective concentration (HUVECs; tube formation ttl, read-out: POD huvec.ttl.18hr): 0.25 µM
- activity at 0.01 µM (HUVECs; [2]): 108%
- activity at 0.01 µM (HUVECs; [3]): 136%
- activity at 0.01 µM (HUVECs; [4]): 110%
- activity at 0.01 µM (HUVECs; [5]): 98.6%
- activity at 0.1 µM (HUVECs; [2]): 104%
- activity at 0.1 µM (HUVECs; [3]): 134%
- activity at 0.1 µM (HUVECs; [4]): 99.2%
- activity at 0.1 µM (HUVECs; [5]): 97.1%
- activity at 1 µM (HUVECs; [2]): 92.4%
- activity at 1 µM (HUVECs; [3]): 139%
- activity at 1 µM (HUVECs; [4]): 71%
- activity at 1 µM (HUVECs; [5]): 68.3%
- activity at 10 µM (HUVECs; [2]): 57.7%
- activity at 10 µM (HUVECs; [3]): 26.2%
- activity at 10 µM (HUVECs; [4]): 36.4%
- activity at 10 µM (HUVECs; [5]): 40%
- activity at 100 µM (HUVECs; [2]): 55.2%
- activity at 100 µM (HUVECs; [3]): 14.3%
- activity at 100 µM (HUVECs; [4]): 8.95%
- activity at 100 µM (HUVECs; [5]): 11.6%
- minimal effective concentration (HUVECs; HUVECs, top concentration 100.00 µM, read-out: huvec.mtl.18hr POD): 1.18 µM
- minimal effective concentration (HUVECs; HUVECs, top concentration 100.00 µM, read-out: huvec.tlps.18hr POD): 5.25 µM
- minimal effective concentration (HUVECs; HUVECs, top concentration 100.00 µM, read-out: huvec.tta.18hr POD): 0.65 µM
- minimal effective concentration (HUVECs; HUVECs, top concentration 100.00 µM, read-out: huvec.ttl.18hr POD): 0.25 µM
- minimal effective concentration ([1]; endothelial cells (endo), cyto, read-out: POD endo.cyto.24hr): 3.82 µM
- minimal effective concentration ([1]; endothelial cells (endo), mito, read-out: POD endo.mito.24hr): 3.82 µM
- minimal effective concentration ([1]; endothelial cells (endo), mitoint, read-out: POD endo.mitoint.24hr): 14.2 µM
- minimal effective concentration ([1]; endothelial cells (endo), nma, read-out: POD endo.nma.24hr): 13 µM
- minimal effective concentration ([1]; endothelial cells (endo), tc, read-out: POD endo.tc.24hr): 2.56 µM
- viability at 0.01 µM [1, 6]: 90%
- activity at 0.01 µM [1, 7]: 90.5%
- activity at 0.01 µM [1, 8]: 114%
- activity at 0.01 µM [1, 9]: 105%
- viability at 0.01 µM [1, 10]: 90%
- viability at 0.1 µM [1, 6]: 89.7%
- activity at 0.1 µM [1, 7]: 89.9%
- activity at 0.1 µM [1, 8]: 103%
- activity at 0.1 µM [1, 9]: 104%
- viability at 0.1 µM [1, 10]: 89.7%
- viability at 1 µM [1, 6]: 93.1%
- activity at 1 µM [1, 7]: 93.1%
- activity at 1 µM [1, 8]: 99.3%
- activity at 1 µM [1, 9]: 103%
- viability at 1 µM [1, 10]: 93.1%
- viability at 10 µM [1, 6]: 87.8%
- activity at 10 µM [1, 7]: 87.7%
- activity at 10 µM [1, 8]: 95.2%
- activity at 10 µM [1, 9]: 102%
- viability at 10 µM [1, 10]: 87.8%
- viability at 100 µM [1, 6]: 12.1%
- activity at 100 µM [1, 7]: 3.06%
- activity at 100 µM [1, 8]: 30.1%
- activity at 100 µM [1, 9]: 161%
- viability at 100 µM [1, 10]: 31.3%
- minimal effective concentration ([1]; iPSC-EC, top concentration 100.00 µM, read-out: endo.cyto.24hr POD): 3.82 µM
- minimal effective concentration ([1]; iPSC-EC, top concentration 100.00 µM, read-out: endo.mito.24hr POD): 3.82 µM
- minimal effective concentration ([1]; iPSC-EC, top concentration 100.00 µM, read-out: endo.mitoint.24hr POD): 14.2 µM
- minimal effective concentration ([1]; iPSC-EC, top concentration 100.00 µM, read-out: endo.nma.24hr POD): 13 µM
- minimal effective concentration ([1]; iPSC-EC, top concentration 100.00 µM, read-out: endo.tc.24hrs POD): 2.56 µM

— paper PMC7377239, “Cardiovascular Effects of Polychlorinated Biphenyls and Their Major Metabolites” (Environmental Health Perspectives, 2020)
